In patent US8092810B2, “Use of polypeptides having antimicrobial activity” (Novozymes A/S, priority 2006, dated 2012):
Converted amounts (≈) assume the structure as drawn. Read-outs that look alike come from different tables or passages of the source.

Assays:
Assay in all cases: MIC broth microdilution
Format in all cases: cell-based
[1] = system: Burkholderia cepacia ATCC 25416
[2] = system: Acinetobacter sp. ATCC 49137
Method: (§1) Briefly, the MIC was determined by microbroth dilution assay in a 96 well plate. 4-5 colonies of each bacterium tested were added to 5 ml of MHB, placed in a 35° C. shaker until the OD 600 nm reached 0.08-0.10. The inoculum was diluted 1:100 and 50 microliters were added to each well which contained 50 microliters of serial two fold dilutions of Lento, vancomycin or ciprofloxacin. Each concentration of antibiotic or Lento was tested in duplicate. The plate was placed at 35° C. overnight. MICs were determined after 24 hours incubation and defined by the well containing the lowest amount of antibiotic with no visible growth.

[3] = system: Corynebacterium jeikeium ATCC 43734; conditions: Corynebacterium jeikeium, ATCC43734, 24 h
Method: as §1

[4] = system: Enterococcus faecalis (VRE) ATCC 51299
Method: as §1

[5] = system: Enterococcus faecium ATCC 51559; conditions: ATCC51559; Enterococcus faecium ATCC 51559, Gram +; MHB, 35° C., 24 hours; read-out: MIC
Method: as §1

[6] = system: Eschericia coli ATCC 10536
Method: as §1

[7] = system: Eschericia coli ATCC 25922
Method: as §1

[8] = system: Eschericia coli ATCC 35218; conditions: 24 h
Method: as §1

[9] = system: Micrococcus luteus ATCC 9341
Method: as §1

[10] = system: Salmonella typhimurium ATCC 13311; conditions: Salmonella enterica
Method: as §1

[11] = system: Shigella dysenteriae ATCC 11835; conditions: Shigella dysenteriae, ATCC11835, 24 h
Method: as §1

[12] = system: Staphylococcus aureus (GISA) ATCC 700699
Method: as §1

[13] = system: Staphylococcus aureus ATCC 27734
Method: as §1

[14] = system: Staphylococcus aureus ATCC 29737; conditions: Staphylococcus aureus, ATCC29737, 24 h
Method: as §1

[15] = system: Staphylococcus aureus subsp. aureus (MRSA & GISA) ATCC 700789
Method: as §1

[16] = system: Staphylococcus aureus subsp. aureus (MRSA) ATCC 700788
Method: as §1

[17] = system: Staphylococcus epidermidis ATCC 12228; conditions: Staphylococcus epidermidis, ATCC12228, 24 h
Method: as §1

[18] = system: Staphylococus aureus (GISA) ATCC 700787
Method: as §1

[19] = system: Streptococcus pneumoniae (PSRSP) ATCC 700671
Method: as §1

[20] = system: Streptococcus pneumoniae (TCRSP) ATCC 700902
Method: as §1

[21] = system: Streptococcus pneumoniae ATCC 49619
Method: as §1

[22] = system: Streptococcus pneumoniae ATCC 700676
Method: as §1

[23] = system: Bacillus cereus ATCC 4342; conditions: Bacillus cereus, ATCC4342, 24 h
Method: as §1

[24] = system: Corynebacterium jeikeium ATCC 43216; conditions: Corynebacterium jeikeium, ATCC43216, 24 h
Method: as §1

[25] = system: Klebsiella pneumoniae ATCC 10031; conditions: ATCC10031, 24 h
Method: as §1

[26] = system: Pseudomonas aeruginosa ATCC 27853; conditions: ATCC27853, 24 h
Method: as §1

[27] = system: Staphylococcus aureus (MRSA) ATCC 33591; conditions: 24 h
Method: as §1

[28] = system: Staphylococcus aureus ATCC 29213; conditions: Staphylococcus aureus, ATCC29213, 24 h
Method: as §1

[29] = system: Stenotrophomas maltophilia ATCC 13637; conditions: 24 h
Method: as §1

## O=C(O)c1cn(C2CC2)c2cc(N3CCNCC3)c(F)cc2c1=O [Ciprofloxacin]
[1]; ATCC25416, Burkholderia cepacia ATCC 25416, Gram −, MHB, 35° C., 24 hours, read-out: MIC
  MIC: 0.25 µg/mL (≈ 0.754 µM)
[2]; ATCC49137, Acinetobacter sp. ATCC 49137, Gram −, MHB, 35° C., 24 hours, read-out: MIC
  MIC: 0.0625 µg/mL (≈ 0.189 µM)
[3]
  MIC: 0.0625 µg/mL (≈ 0.189 µM)
[4]; Enterococcus faecalis (VRE) ATCC 51299, Gram +, MHB, 35° C., 24 hours, read-out: MIC
  MIC: 0.5 µg/mL (≈ 1.51 µM)
[5]
  MIC: > 64 µg/mL
[6]; Eschericia coli ATCC 10536, Gram −, MHB, 35° C., 24 hours, read-out: MIC
  MIC: 0.0625 µg/mL (≈ 0.189 µM)
[7]; Eschericia coli ATCC 25922, Gram −, MHB, 35° C., 24 hours, read-out: MIC
  MIC: 0.0625 µg/mL (≈ 0.189 µM)
[8]
  MIC: 0.0625 µg/mL (≈ 0.189 µM)
[9]; ATCC9341, Micrococcus luteus ATCC 9341, Gram +, MHB, 35° C., 24 hours, read-out: MIC
  MIC: 1 µg/mL (≈ 3.02 µM)
[10]; Salmonella typhimurium ATCC 13311, Gram −, MHB, 35° C., 24 hours, read-out: MIC
  MIC: 0.0625 µg/mL (≈ 0.189 µM)
[11]
  MIC: 0.0625 µg/mL (≈ 0.189 µM)
[12]; ATCC700699, Staphylococcus aureus (GISA) ATCC 700699, Gram +, MHB, 35° C., 24 hours, read-out: MIC
  MIC: 16 µg/mL (≈ 48.3 µM)
[13]; ATCC27734, Staphylococcus aureus ATCC 27734, Gram +, MHB, 35° C., 24 hours, read-out: MIC
  MIC: 8 µg/mL (≈ 24.1 µM)
[14]
  MIC: 0.0625 to 0.25 µg/mL (≈ 0.189 to 0.754 µM)
[15]; Staphylococcus aureus subsp. aureus (MRSA & GISA) ATCC 700789, Gram +, MHB, 35° C., 24 hours, read-out: MIC
  MIC: 16 µg/mL (≈ 48.3 µM)
[16]; Staphylococcus aureus subsp. aureus (MRSA) ATCC 700788, Gram +, MHB, 35° C., 24 hours, read-out: MIC
  MIC: 8 µg/mL (≈ 24.1 µM)
[17]
  MIC: 0.0625 µg/mL (≈ 0.189 µM)
[18]; Staphylococus aureus (GISA) ATCC 700787, Gram +, MHB, 35° C., 24 hours, read-out: MIC
  MIC: 16 µg/mL (≈ 48.3 µM)
[19]; ATCC700671, Streptococcus pneumoniae (PSRSP) ATCC 700671, Gram +, MHB, 35° C., 24 hours, read-out: MIC
  MIC: 1 to 2 µg/mL (≈ 3.02 to 6.04 µM)
[20]; ATCC700902, Streptococcus pneumoniae (TCRSP) ATCC 700902, Gram +, MHB, 35° C., 24 hours, read-out: MIC
  MIC: 0.5 to 1 µg/mL (≈ 1.51 to 3.02 µM)
[21]; ATCC49619, Streptococcus pneumoniae ATCC 49619, Gram +, MHB, 35° C., 24 hours, read-out: MIC
  MIC: 0.5 µg/mL (≈ 1.51 µM)
[22]; ATCC700676, Streptococcus pneumoniae ATCC 700676, Gram +, MHB, 35° C., 24 hours, read-out: MIC
  MIC: 1 µg/mL (≈ 3.02 µM)

## CN[C@H](CC(C)C)C(=O)N[C@H]1C(=O)N[C@@H](CC(N)=O)C(=O)N[C@H]2C(=O)N[C@H]3C(=O)N[C@H](C(=O)N[C@H](C(=O)O)c4cc(O)cc(O)c4-c4cc3ccc4O)[C@H](O)c3ccc(c(Cl)c3)Oc3cc2cc(c3O[C@@H]2O[C@H](CO)[C@@H](O)[C@H](O)[C@H]2O[C@H]2C[C@](C)(N)[C@H](O)[C@H](C)O2)Oc2ccc(cc2Cl)[C@H]1O [Vancomycin, vancomycin]
[1]; Burkholderia cepacia, ATCC25416, 24 h
  MIC: > 64 µg/mL
[2]; Acinetobacter, ATCC49137, 24 h
  MIC: > 64 µg/mL
[23]
  MIC: 1 µg/mL (≈ 0.69 µM)
[24]
  MIC: 0.25 µg/mL (≈ 0.173 µM)
[3]
  MIC: 0.25 µg/mL (≈ 0.173 µM)
[4]; Enterococcus faecalis, 24 h
  MIC: 2 µg/mL (≈ 1.38 µM)
[6]; 24 h
  MIC: > 64 µg/mL
[7]; 24 h
  MIC: > 64 µg/mL
[8]
  MIC: > 64 µg/mL
[25]
  MIC: > 64 µg/mL
[9]; Micrococcus luteus, ATCC9341, 24 h
  MIC: 0.5 µg/mL (≈ 0.345 µM)
[26]
  MIC: > 64 µg/mL
[10]; 24 h
  MIC: > 64 µg/mL
[11]
  MIC: > 64 µg/mL
[12]; Staphylococcus aureus, ATCC700699, 24 h
  MIC: 8 µg/mL (≈ 5.52 µM)
[27]
  MIC: 1 µg/mL (≈ 0.69 µM)
[13]; Staphylococcus aureus, ATCC27734, 24 h
  MIC: 1 µg/mL (≈ 0.69 µM)
[28]
  MIC: 0.5 µg/mL (≈ 0.345 µM)
[14]
  MIC: 0.5 µg/mL (≈ 0.345 µM)
[15]; Staphylococcus aureus, 24 h
  MIC: 2 µg/mL (≈ 1.38 µM)
[16]; Staphylococcus aureus, 24 h
  MIC: 2 µg/mL (≈ 1.38 µM)
[17]
  MIC: 1 µg/mL (≈ 0.69 µM)
[18]; 24 h
  MIC: 8 µg/mL (≈ 5.52 µM)
[29]
  MIC: 32 µg/mL (≈ 22.1 µM)
[19]; Streptococcus pneumoniae, ATCC700671, 24 h
  MIC: 0.5 µg/mL (≈ 0.345 µM)
[20]; Streptococcus pneumoniae, ATCC700902, 24 h
  MIC: 0.25 µg/mL (≈ 0.173 µM)
[21]; Streptococcus pneumoniae, ATCC49619, 24 h
  MIC: 0.5 to 1 µg/mL (≈ 0.345 to 0.69 µM)
[22]; Streptococcus pneumoniae, ATCC700676, 24 h
  MIC: 0.25 µg/mL (≈ 0.173 µM)
